Measured values: ChEMBL document CHEMBL4145665, “Structure-Activity Relationship of Novel and Selective Biaryl-Chroman GPR40 AgoPAMs” (ACS Med Chem Lett, 2018)
pEC50, pIC50: −log10 of the molar value.

Legend:
[1] = test system: Rattus norvegicus; assay: Antidiabetic activity in Goto Kakizaki rats assessed as inhibition of blood glucose AUC at 0.3 mg/kg, po pretreated for 1 hr followed by dextrose challenge measured after 20 to 60 mins by OGTT method relative to control; type: functional
[2] = target: T1, Free fatty acid receptor 1 (Homo sapiens, UniProt O14842); assay: Agonist activity at recombinant human GPR40 expressed in HEK293 cells assessed as increase in IP1 accumulation measured after 60 mins by HTRF assay; type: functional, cell-based
[3] = test system: Rattus norvegicus; assay: Antidiabetic activity in Sprague-Dawley rat assessed as inhibition of blood glucose AUC at 3 mg/kg, po treated prior to dextrose challenge and measured after 20 to 60 mins by IPGTT relative to control; type: functional; conditions: Rattus norvegicus, Sprague-Dawley, po
[4] = target: T1, Free fatty acid receptor 1; assay: Agonist activity at recombinant human GPR40 expressed in HEK293 cells assessed as increase in IP1 accumulation measured after 60 mins by HTRF assay relative to AM-1638; type: functional, cell-based
[5] = target: Free fatty acid receptor 1 (Rattus norvegicus, UniProt Q8K3T4); assay: Agonist activity at recombinant rat GPR40 expressed in CHOK1 cells assessed as increase in IP1 accumulation measured after 60 mins by HTRF assay; type: functional, cell-based
[6] = test system: Rattus norvegicus; assay: Antidiabetic activity in po dosed Goto Kakizaki rats assessed as reduction in blood glucose excursion pretreated for 1 hr followed by dextrose challenge measured after 20 to 60 mins by OGTT method; type: functional; conditions: read-out: MED
[7] = Fraction unbound in Wistar-Han rat plasma at 1 mg/kg, iv or 2 mg/kg, po administered as single dose; type: ADME, organism-based
[8] = Oral bioavailability in Wistar-Han rat at 2 mg/kg administered as single dose; type: ADME, organism-based; conditions: in vivo
[9] = test system: Rattus norvegicus; assay: Antidiabetic activity in Goto Kakizaki rats assessed as inhibition of blood glucose AUC at 1 mg/kg, po pretreated for 1 hr followed by dextrose challenge measured after 20 to 60 mins by OGTT method relative to control; type: functional
[10] = test system: Rattus norvegicus; assay: Antidiabetic activity in Goto Kakizaki rats assessed as inhibition of blood glucose AUC at 3 mg/kg, po pretreated for 1 hr followed by dextrose challenge measured after 20 to 60 mins by OGTT method relative to control; type: functional
[11] = test system: Rattus norvegicus; assay: Antidiabetic activity in Goto Kakizaki rats assessed as inhibition of blood glucose AUC at 10 mg/kg, po pretreated for 1 hr followed by dextrose challenge measured after 20 to 60 mins by OGTT method relative to control; type: functional
[12] = test system: Rattus norvegicus; assay: Antidiabetic activity in Goto Kakizaki rats assessed as plasma concentration required for reduction in blood glucose excursion at 0.3 mg/kg, po pretreated for 1 hr followed by dextrose challenge measured 3 hrs post dose by OGTT; type: functional, organism-based
[13] = test system: Rattus norvegicus; assay: Antidiabetic activity in Goto Kakizaki rats assessed as plasma concentration required for reduction in blood glucose excursion at 1 mg/kg, po pretreated for 1 hr followed by dextrose challenge measured 3 hrs post dose by OGTT; type: functional, organism-based
[14] = test system: Rattus norvegicus; assay: Antidiabetic activity in Goto Kakizaki rats assessed as plasma concentration required for reduction in blood glucose excursion at 3 mg/kg, po pretreated for 1 hr followed by dextrose challenge measured 3 hrs post dose by OGTT; type: functional, organism-based
[15] = test system: Rattus norvegicus; assay: Antidiabetic activity in Goto Kakizaki rats assessed as plasma concentration required for reduction in blood glucose excursion at 10 mg/kg, po pretreated for 1 hr followed by dextrose challenge measured 3 hrs post dose by OGTT; type: functional, organism-based
[16] = test system: Rattus norvegicus; assay: Antidiabetic activity in Goto Kakizaki rats assessed as plasma concentration required for reduction in blood glucose excursion at 30 mg/kg, po pretreated for 1 hr followed by dextrose challenge measured 3 hrs post dose by OGTT; type: functional, organism-based
[17] = target: Bile salt export pump (Homo sapiens, UniProt O95342); assay: Inhibition of human BSEP expressed in baculovirus infected Sf9 insect cell membrane vesicles assessed as reduction in ATP-dependent [3H]-taurocholic acid uptake; type: ADME
[18] = test system: Mus musculus; assay: Antidiabetic activity in po dosed C57BL/6 mouse assessed as increase in GLP-1 secretion measured after 1 hr; type: functional, organism-based
[19] = Clearance in Beagle dog at 1 mg/kg, iv or 2 mg/kg, po administered as single dose; type: ADME, organism-based, Canis lupus familiaris; conditions: in vivo
[20] = Volume of distribution at steady state in Beagle dog at 1 mg/kg, iv or 2 mg/kg, po administered as single dose; type: ADME, organism-based, Canis lupus familiaris; conditions: in vivo, read-out: Vdss
[21] = Oral bioavailability in Beagle dog at 2 mg/kg administered as single dose; type: ADME, organism-based, Canis lupus familiaris; conditions: in vivo
[22] = Clearance in rhesus monkey at 1 mg/kg, iv or 2 mg/kg, po administered as single dose; type: ADME, organism-based, Macaca mulatta; conditions: in vivo
[23] = Volume of distribution at steady state in rhesus monkey at 1 mg/kg, iv or 2 mg/kg, po administered as single dose; type: ADME, organism-based, Macaca mulatta; conditions: in vivo, read-out: Vdss
[24] = Oral bioavailability in rhesus monkey at 2 mg/kg administered as single dose; type: ADME, organism-based, Macaca mulatta; conditions: in vivo
[25] = Intrinsic clearance in Wistar-Han rat hepatocytes; type: ADME, cell-based, Hepatocyte; conditions: read-out: CLH
[26] = Intrinsic clearance in Beagle dog hepatocytes; type: ADME, cell-based, Canis lupus familiaris, Hepatocyte; conditions: read-out: CLH
[27] = AUC (0 to 24 hrs) in Wistar rat at 200 mg/kg administered once daily for 4 days; type: ADME, organism-based; design: dose 200 mg/kg, time < 24 hr; conditions: in vivo
[28] = Cmax in Wistar rat at 200 mg/kg administered once daily for 4 days; type: ADME, organism-based; design: dose 200 mg/kg; conditions: in vivo
[29] = Tmax in Wistar rat at 200 mg/kg administered once daily for 4 days; type: ADME, organism-based; conditions: in vivo
[30] = test system: Rattus norvegicus; assay: Toxicity in Wistar rat assessed as decrease in body weight at 200 mg/kg administered once daily for 4 days relative to control; type: organism-based; design: scale not given: the % may be the effect or the level left; conditions: in vivo, 96 h
[31] = Cmax in Wistar rat at 750 mg/kg administered once daily for 4 days; type: ADME, organism-based; design: dose 750 mg/kg; conditions: in vivo
[32] = test system: Rattus norvegicus; assay: Toxicity in Wistar rat assessed as decrease in body weight at 750 mg/kg administered once daily for 4 days relative to control; type: organism-based; design: scale not given: the % may be the effect or the level left; conditions: in vivo, 96 h
[33] = test system: Rattus norvegicus; assay: Toxicity in Wistar rat assessed as change in cardiac troponin1 levels at 200 to 750 mg/kg administered once daily for 4 days; type: organism-based; conditions: in vivo, 96 h
[34] = test system: Rattus norvegicus; assay: Toxicity in Wistar rat assessed as gross findings at 200 to 750 mg/kg administered once daily for 4 days; type: organism-based; conditions: in vivo, 96 h
[35] = test system: Rattus norvegicus; assay: Toxicity in Wistar rat assessed as change in functional observational battery at 200 to 750 mg/kg administered once daily for 4 days; type: organism-based; conditions: in vivo, 96 h
[36] = Lipophilicity, log D of the compound at pH 7 at 100 uM by HPLC method; type: physicochemical; conditions: buffer
[37] = target: T2, Free fatty acid receptor 4 (Homo sapiens, UniProt Q5NUL3); assay: Agonist activity at GPR120 (unknown origin); type: functional
T2 sequence (Q5NUL3 whole entry): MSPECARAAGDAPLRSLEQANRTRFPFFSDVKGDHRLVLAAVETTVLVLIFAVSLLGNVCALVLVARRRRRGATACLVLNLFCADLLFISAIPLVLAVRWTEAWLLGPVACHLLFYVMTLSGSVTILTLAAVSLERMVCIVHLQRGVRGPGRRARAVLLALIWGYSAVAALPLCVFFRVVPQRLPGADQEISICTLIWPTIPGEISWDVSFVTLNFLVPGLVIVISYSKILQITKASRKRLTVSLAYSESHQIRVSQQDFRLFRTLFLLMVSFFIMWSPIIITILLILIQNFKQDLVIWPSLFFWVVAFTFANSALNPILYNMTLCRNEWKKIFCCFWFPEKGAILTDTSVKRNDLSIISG

T1 sequence (O14842 whole entry): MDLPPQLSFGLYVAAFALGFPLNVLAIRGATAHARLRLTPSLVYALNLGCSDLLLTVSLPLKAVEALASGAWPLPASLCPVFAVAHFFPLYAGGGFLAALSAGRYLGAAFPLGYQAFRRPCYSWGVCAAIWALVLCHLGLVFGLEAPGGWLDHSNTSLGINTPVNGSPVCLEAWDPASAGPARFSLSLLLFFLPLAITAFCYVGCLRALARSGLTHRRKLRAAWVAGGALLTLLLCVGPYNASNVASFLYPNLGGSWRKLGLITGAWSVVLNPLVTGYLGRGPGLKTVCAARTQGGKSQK
Chain of Free fatty acid receptor 1 (Rattus norvegicus, UniProt Q8K3T4) (Q8K3T4 whole entry): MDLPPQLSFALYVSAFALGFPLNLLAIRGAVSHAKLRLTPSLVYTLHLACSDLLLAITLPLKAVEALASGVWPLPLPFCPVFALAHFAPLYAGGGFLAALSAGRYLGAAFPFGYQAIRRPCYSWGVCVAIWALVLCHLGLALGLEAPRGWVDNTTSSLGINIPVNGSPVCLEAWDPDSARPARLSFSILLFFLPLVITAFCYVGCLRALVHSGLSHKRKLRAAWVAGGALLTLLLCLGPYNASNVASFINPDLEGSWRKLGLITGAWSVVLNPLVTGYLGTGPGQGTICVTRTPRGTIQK
Chain of Bile salt export pump (O95342 whole entry): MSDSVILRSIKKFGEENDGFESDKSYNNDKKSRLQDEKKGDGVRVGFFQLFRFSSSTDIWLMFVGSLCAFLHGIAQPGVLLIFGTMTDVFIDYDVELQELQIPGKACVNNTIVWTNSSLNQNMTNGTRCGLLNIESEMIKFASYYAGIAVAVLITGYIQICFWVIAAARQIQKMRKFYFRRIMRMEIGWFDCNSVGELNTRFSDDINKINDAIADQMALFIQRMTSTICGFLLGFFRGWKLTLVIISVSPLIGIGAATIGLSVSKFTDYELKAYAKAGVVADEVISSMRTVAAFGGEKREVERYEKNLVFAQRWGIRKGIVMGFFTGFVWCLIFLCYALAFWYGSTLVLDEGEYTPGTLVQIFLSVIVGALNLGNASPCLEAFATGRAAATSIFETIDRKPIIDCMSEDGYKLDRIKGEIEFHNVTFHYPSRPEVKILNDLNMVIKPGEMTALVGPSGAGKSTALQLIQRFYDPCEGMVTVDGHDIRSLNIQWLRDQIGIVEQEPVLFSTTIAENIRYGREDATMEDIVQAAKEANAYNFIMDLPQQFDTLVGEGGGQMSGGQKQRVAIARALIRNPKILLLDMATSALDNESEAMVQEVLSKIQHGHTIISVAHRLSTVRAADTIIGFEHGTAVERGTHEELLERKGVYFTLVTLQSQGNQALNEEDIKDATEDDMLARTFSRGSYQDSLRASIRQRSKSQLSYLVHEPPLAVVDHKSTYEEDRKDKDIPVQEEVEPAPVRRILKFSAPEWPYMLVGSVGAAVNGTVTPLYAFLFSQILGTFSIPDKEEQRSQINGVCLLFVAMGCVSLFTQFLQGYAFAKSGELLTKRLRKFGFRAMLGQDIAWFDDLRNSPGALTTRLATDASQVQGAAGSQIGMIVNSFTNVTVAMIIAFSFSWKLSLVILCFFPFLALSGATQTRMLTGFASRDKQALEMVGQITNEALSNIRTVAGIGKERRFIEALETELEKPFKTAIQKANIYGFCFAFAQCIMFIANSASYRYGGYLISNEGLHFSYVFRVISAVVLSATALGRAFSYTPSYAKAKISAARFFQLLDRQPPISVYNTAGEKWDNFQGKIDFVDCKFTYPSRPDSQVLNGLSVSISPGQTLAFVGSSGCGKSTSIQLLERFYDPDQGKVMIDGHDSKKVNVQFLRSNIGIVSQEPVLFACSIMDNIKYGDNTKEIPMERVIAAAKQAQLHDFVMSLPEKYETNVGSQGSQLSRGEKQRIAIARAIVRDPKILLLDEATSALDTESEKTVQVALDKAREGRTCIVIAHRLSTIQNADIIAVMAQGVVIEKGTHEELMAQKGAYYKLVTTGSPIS

COc1cc(-c2ccc([C@@H]3CCc4ccc([C@H](C5CC5)[C@H](C)C(=O)[O-])cc4O3)c(F)c2)ccn1.[Na+]
inhibition in vivo at 0.3 mg/kg [1]: 63%
pEC50 [2]: 9.10
inhibition in vivo at 3 mg/kg [3]: 103%
max activation [4]: > 179%
pEC50 [5]: 9.31
minimal effective dose [6]: 10 mg/kg
fraction unbound [7]: 0.0002
bioavailability [8]: 81%
inhibition in vivo at 1 mg/kg [9]: 95%
inhibition in vivo at 3 mg/kg [10]: 108%
inhibition in vivo at 10 mg/kg [11]: 118%
Cp [12]: 0.25 µM
Cp [13]: 0.9 µM
Cp [14]: 2.2 µM
Cp [15]: 4.9 µM
Cp [16]: 7.7 µM
pIC50 [17]: 5.46
Activity [18]: Dose-dependent effect
clearance [19]: 1.6 mL/min/kg
Vd [20]: 0.45 L/kg
bioavailability [21]: 79%
clearance [22]: 0.72 mL/min/kg
Vd [23]: 0.48 L/kg
bioavailability [24]: 64%
CLint scaled [25]: 241 mL/min/kg
CLint scaled [26]: 126 mL/min/kg
AUC at 24 h [27]: 2310 µM·h
Cmax [28]: 223 µM
Tmax [29]: 1 to 2 h
Activity [30]: 72%
Cmax [31]: 545 µM
Activity [32]: 90%
Activity [33]: Non-Toxic
Activity [34]: Non-Toxic
Activity [35]: Non-Toxic
logD at 100 µM [36]: 2.51
pEC50 [37]: < 5.00
